Reference: ChEMBL document CHEMBL1201862, “PubChem BioAssay data set” (2004)
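Tested at 5 concentrations; 48 h exposure; 96-well plates; endpoints linearly interpolated, else capped at highest concentration. Abbreviation: GI50, concentration required for 50% inhibition of growth.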 Active and inactive are the calls of the source. Cut-off read from the data, not from the text of the source: active = GI50 up to about 1.1 µM and inactive = higher.

Tests used:
Assay in all cases: DTP human tumour cell line panel, 48 h
[1] = test system: SW-620
[2] = test system: CCRF-CEM
[3] = test system: A498
[4] = test system: OVCAR-8
[5] = test system: RPMI-8226
[6] = test system: SF-268
[7] = test system: SK-OV-3
[8] = test system: UO-31
[9] = test system: SNB-75
[10] = test system: U-251
[11] = test system: NCI-H23
[12] = test system: NCI-H522
[13] = test system: NCI-H460
[14] = test system: DLD-1
[15] = test system: HCT-116
[16] = test system: SF-295
[17] = test system: HCT-15

CC(C)[Si](OCC1CC(C[C@H]2CC(C[C@H]3C[C@@H](CO[Si](C(C)C)(C(C)C)C(C)C)OC(C)(C)O3)OC(C)(C)O2)OC(C)(C)O1)(C(C)C)C(C)C (some centres undefined)
GI50 [1]: > 100 µM (inactive) | GI50 [2]: > 100 µM (inactive) | GI50 [3]: > 100 µM (inactive) | GI50 [4]: > 100 µM (inactive) | GI50 [5]: > 100 µM (inactive) | GI50 [6]: > 100 µM (inactive) | GI50 [7]: > 100 µM (inactive) | GI50 [8]: > 100 µM (inactive) | GI50 [9]: > 100 µM (inactive) | GI50 [10]: > 100 µM (inactive) | GI50 [11]: > 100 µM (inactive) | GI50 [12]: > 100 µM (inactive) | GI50 [13]: > 100 µM (inactive) | GI50 [14]: > 100 µM (inactive) | GI50 [15]: > 100 µM (inactive) | GI50 [16]: > 100 µM (inactive)

COc1ccc2oc(-c3cc4cc(OC)ccc4o3)cc2c1
GI50 [1]: > 100 µM (inactive) | GI50 [2]: > 100 µM (inactive) | GI50 [4]: > 100 µM (inactive) | GI50 [5]: > 100 µM (inactive) | GI50 [6]: > 100 µM (inactive) | GI50 [7]: > 100 µM (inactive) | GI50 [8]: > 100 µM (inactive) | GI50 [9]: > 100 µM (inactive) | GI50 [17]: > 100 µM | GI50 [11]: > 100 µM (inactive) | GI50 [12]: > 100 µM (inactive) | GI50 [13]: > 100 µM (inactive) | GI50 [14]: > 100 µM (inactive) | GI50 [16]: > 100 µM (inactive)

CN(CC(=O)O)S(=O)(=O)c1ccc(F)cc1
GI50 [1]: > 100 µM (inactive) | GI50 [2]: > 100 µM (inactive) | GI50 [3]: > 100 µM (inactive) | GI50 [4]: > 100 µM (inactive) | GI50 [5]: > 100 µM (inactive) | GI50 [6]: > 100 µM (inactive) | GI50 [7]: > 100 µM (inactive) | GI50 [8]: > 100 µM (inactive) | GI50 [9]: > 100 µM (inactive) | GI50 [10]: > 100 µM (inactive) | GI50 [17]: > 100 µM | GI50 [11]: > 100 µM (inactive) | GI50 [12]: > 100 µM (inactive) | GI50 [13]: > 100 µM (inactive) | GI50 [14]: > 100 µM (inactive) | GI50 [16]: > 100 µM (inactive)

CCCCN1C(=O)C2c3[nH]c4ccccc4c3C3CCCCC3C2C1=O.CCCCN1C(=O)C2c3[nH]c4ccccc4c3[C@@H]3CCCCC3C2C1=O (centres undefined)
GI50 [1]: 37.8 µM (inactive) | GI50 [2]: 16.4 µM (inactive) | GI50 [4]: 11.8 µM (inactive) | GI50 [6]: 17.9 µM (inactive) | GI50 [7]: 22.3 µM (inactive) | GI50 [8]: 14.8 µM (inactive) | GI50 [9]: 7.11 µM (inactive) | GI50 [10]: 16.4 µM (inactive) | GI50 [17]: 29.4 µM | GI50 [11]: 16 µM (inactive) | GI50 [13]: 10.5 µM (inactive) | GI50 [14]: 12.9 µM (inactive) | GI50 [15]: 9.42 µM (inactive) | GI50 [16]: 7.93 µM (inactive)

O/N=C(\c1nc2ccc(Cl)cc2nc1O)C(O)c1ccc(Cl)cc1Cl (centres undefined)
GI50 [1]: > 100 µM (inactive) | GI50 [2]: > 100 µM (inactive) | GI50 [4]: > 100 µM (inactive) | GI50 [5]: > 100 µM (inactive) | GI50 [6]: > 100 µM (inactive) | GI50 [7]: > 100 µM (inactive) | GI50 [8]: > 100 µM (inactive) | GI50 [9]: > 100 µM (inactive) | GI50 [10]: > 100 µM (inactive) | GI50 [17]: > 100 µM | GI50 [11]: > 100 µM (inactive) | GI50 [12]: > 100 µM (inactive) | GI50 [13]: > 100 µM (inactive) | GI50 [14]: > 100 µM (inactive) | GI50 [15]: > 100 µM (inactive) | GI50 [16]: > 100 µM (inactive)

Cc1cc(Cl)ccc1N1C(=O)C(=O)C(c2nc3ccccc3o2)C(=O)C1=O
GI50 [1]: 43.7 µM (inactive) | GI50 [2]: 23.7 µM (inactive) | GI50 [3]: > 100 µM (inactive) | GI50 [4]: > 100 µM (inactive) | GI50 [6]: > 100 µM (inactive) | GI50 [7]: > 100 µM (inactive) | GI50 [8]: > 100 µM (inactive) | GI50 [9]: 63.4 µM (inactive) | GI50 [10]: > 100 µM (inactive) | GI50 [17]: > 100 µM | GI50 [11]: > 100 µM (inactive) | GI50 [12]: > 100 µM (inactive) | GI50 [13]: > 100 µM (inactive) | GI50 [14]: 32.9 µM (inactive) | GI50 [15]: 46.5 µM (inactive) | GI50 [16]: > 100 µM (inactive)

COc1ccc(/C=[N+](\[O-])[C@H](COCc2ccccc2)c2ccccc2)cc1
GI50 [1]: 92 µM (inactive) | GI50 [2]: 35.7 µM (inactive) | GI50 [3]: > 100 µM (inactive) | GI50 [4]: > 100 µM (inactive) | GI50 [5]: 15.7 µM (inactive) | GI50 [6]: 67.5 µM (inactive) | GI50 [7]: > 100 µM (inactive) | GI50 [8]: 17.3 µM (inactive) | GI50 [9]: > 100 µM (inactive) | GI50 [10]: > 100 µM (inactive) | GI50 [11]: > 100 µM (inactive) | GI50 [12]: 41.1 µM (inactive) | GI50 [13]: 63.7 µM (inactive) | GI50 [14]: 89.1 µM (inactive) | GI50 [15]: 43.3 µM (inactive) | GI50 [16]: 66.8 µM (inactive)

COCC(O)CN1C(N)=NC(O)C1O (centres undefined)
GI50 [1]: > 100 µM (inactive) | GI50 [4]: > 100 µM (inactive) | GI50 [6]: > 100 µM (inactive) | GI50 [8]: > 100 µM (inactive) | GI50 [9]: > 100 µM (inactive) | GI50 [10]: > 100 µM (inactive) | GI50 [11]: > 100 µM (inactive) | GI50 [12]: > 100 µM (inactive) | GI50 [13]: > 100 µM (inactive) | GI50 [14]: > 100 µM (inactive) | GI50 [16]: > 100 µM (inactive)

C[n+]1cccc(NC(=O)c2ccc(NC(=O)C34CCC(C(=O)Nc5ccc(C(=O)Nc6ccc[n+](C)c6)cc5)(CC3)CC4)cc2)c1
GI50 [1]: 70.1 µM (inactive) | GI50 [2]: 15.2 µM (inactive) | GI50 [3]: 18 µM (inactive) | GI50 [4]: 42.7 µM (inactive) | GI50 [5]: 3.92 µM (inactive) | GI50 [6]: 16.4 µM (inactive) | GI50 [9]: 2.84 µM (inactive) | GI50 [10]: 27.9 µM (inactive) | GI50 [17]: 58.2 µM | GI50 [11]: 56.5 µM (inactive) | GI50 [12]: 5.42 µM (inactive) | GI50 [13]: 7.45 µM (inactive) | GI50 [14]: 10.9 µM (inactive) | GI50 [15]: 33.5 µM (inactive) | GI50 [16]: 19.7 µM (inactive)
